{"source": "patent US12521450B2", "about": "“DNA, expression vector, transcript, cell, pharmaceutical composition, and medicine” (Hitachi, Ltd., priority 2021, dated 2026)", "test_system": "SF3B1 K700E mutant cell derived from the HEK293FT cells", "assay": "GCV-concentration-dependent cell death, MTT assay, lentiviral HSV-TK (BRD9 intron) in genome-edited cells", "format": "cell-based", "conditions": "SF3B1 K700E mutant cell (one allele) vs SF3B1 normal cell; GCV 100 to 0.16 μg/mL, 48 hours; FIG. 7", "protocol": "In this example, in order to verify the toxicity of a suicide gene in a cell having an SF3B1 K700E mutation in one allele in a genome, as in actual cancer cells, HEK293FT cells were genome-edited and an SF3B1 K700E mutant cell strain was established.\nMeanwhile, an HSV-TK expression lentiviral vector containing the BRD9 intron was prepared using the pHR vector shown in SEQ ID NO: 11 (FIGS. 3A and 3B). The lentiviral vector was introduced into the SF3B1 K700E mutant strain and an SF3B1 normal strain as a control, and the number of cells killed by the addition of GCV was quantified using the MTT assay method. A detailed procedure will be shown below. […]\nThe solubilized solution of the MTT cell number measuring kit (Nacalai Tesque Inc.) was added into the HEK293FT cells at 100 μL/well, and the mixture was incubated at 37° C. After 20 hours, the absorbance at 570 nm (reference wavelength: 655 nm) was measured with the microplate reader.\nThe number of viable cells was calculated based on a standard curve using the above-mentioned serially diluted HEK293FT cells, and the viability was shown as a ratio when the number of cells in the GCV-free group was 100%. Further, the efficacy was evaluated by comparing the cytotoxicity due to GCV addition in the SF3B1 normal cell with the cytotoxicity of the SF3B1 K700E mutant cell. […]"}
{"substance": "suicide gene containing the BRD9 intron: SFFV promoter, HSV-TK inserted with an intron of BRD9 containing no normal acceptor sequence, puromycin resistance gene linked by P2A", "values": [{"measurement": "viability (ratio when the number of cells in the GCV-free group was 100%)", "result": "viability lower than that of the SF3B1 normal cell"}]}
